# Results taken from article PMC11112094, “MzmL, a novel marine derived N-acyl homoserine lactonase from Mesoflavibacter zeaxanthinifaciens that attenuates Pectobacterium carotovorum subsp. carotovorum virulence” (Frontiers in Microbiology, 2024).
# System: T1, MzmL
# T1 construct: full-length ORF (304 residues, predicted 16-residue signal peptide MKKLIILLITLSLFVA included in the clone), N-terminal His6 tag kept (pET-28a), E. coli BL21(DE3), Ni-NTA, ~35 kDa
# Experiment: pH-indicator (bromothymol blue) assay of lactone hydrolysis, OD630, Michaelis-Menten fit
# Assay type: biochemical, Mesoflavibacter zeaxanthinifaciens
# Details: 2.5 mM MOPS pH 7.1; 25°C in methods, 28°C in table footnote; 5 nM enzyme; read-out: Km (mM)/Mean ± SD
# Source text: pH-indicator (bromothymol blue) assay of lactone hydrolysis, OD630, Michaelis-Menten fit on MzmL
compound,measurement,value
CCCC(=O)CC(=O)N[C@H]1CCOC1=O [3-oxo-C6-HSL],Km,0.08 ± 0.06 mM
CCCCCC(=O)N[C@H]1CCOC1=O [C6-HSL],Km,0.39 ± 0.11 mM
CCCCCCCCCC(=O)N[C@H]1CCOC1=O [C10-HSL],Km,0.04 ± 0.01 mM
CCCCCCCC(=O)CC(=O)N[C@H]1CCOC1=O [3-oxo-C10-HSL],Km,0.12 ± 0.03 mM
CCCCCC(=O)CC(=O)N[C@H]1CCOC1=O [3-oxo-C8-HSL],Km,0.46 ± 0.21 mM
